ChEMBL document CHEMBL3885881, “DrugMatrix”

Organism: Rattus norvegicus
Assay: DrugMatrix - Regimen: Daily Repeat
Assay type: toxicity, organism-based, Sprague-Dawley
Parameters: regimen Daily Repeat, gender Male, age 6-8 weeks
Conditions: in vivo, po, route oral GAVAGE, vehicle 100 % SALINE; for ABSOLUTE BASOPHIL / ABSOLUTE EOSINOPHIL / ABSOLUTE LYMPHOCYTE / ABSOLUTE MONOCYTE / ABSOLUTE SEGMENTED NEUTROPHIL / BASOPHIL / EOSINOPHIL / ERYTHROCYTE COUNT / HEMATOCRIT / HEMOGLOBIN / LEUKOCYTE COUNT / LYMPHOCYTE / MEAN CORPUSCULAR HEMOGLOBIN / MEAN CORPUSCULAR HEMOGLOBIN CONCENTRATION / MONOCYTE / NEUTROPHIL / NUCLEATED RED BLOOD CELLS / PLATELET COUNT: tissue Blood; for ALANINE AMINOTRANSFERASE / ALBUMIN / ALKALINE PHOSPHATASE / ASPARTATE AMINOTRANSFERASE / BLOOD UREA NITROGEN / CARBON DIOXIDE / CHOLESTEROL / CREATINE PHOSPHOKINASE / CREATININE / GLUCOSE / LACTATE DEHYDROGENASE / LIPASE / POTASSIUM / SODIUM / TOTAL BILIRUBIN / TOTAL PROTEIN / URIC ACID: tissue Plasma
[1] = 0 mg/kg, 72 h, dose level Control, time 3 day
[2] = 0 mg/kg, 120 h, dose level Control, time 5 day
[3] = 330 mg/kg, 72 h, dose level Low, time 3 day

SMILES: Nc1nc2c(ncn2COCCO)c(=O)[nH]1 [ACYCLOVIR]
- ABSOLUTE BASOPHIL [1]: 0 CELLS/uL
- ABSOLUTE EOSINOPHIL [1]: 37 CELLS/uL
- ABSOLUTE LYMPHOCYTE [1]: 12359.33 CELLS/uL
- ABSOLUTE MONOCYTE [1]: 122.67 CELLS/uL
- ABSOLUTE SEGMENTED NEUTROPHIL [1]: 847.67 CELLS/uL
- BASOPHIL [1]: 0%
- EOSINOPHIL [1]: 0.33%
- ERYTHROCYTE COUNT [1]: 5.75 x10E6/uL
- HEMATOCRIT [1]: 36.08%
- HEMOGLOBIN [1]: 14.07 G/DL
- LEUKOCYTE COUNT [1]: 13.37 x10E3/uL
- LYMPHOCYTE [1]: 92.5%
- MEAN CORPUSCULAR HEMOGLOBIN [1]: 24.47 pg
- MEAN CORPUSCULAR HEMOGLOBIN CONCENTRATION [1]: 38.98 G/DL
- MONOCYTE [1]: 1%
- NEUTROPHIL [1]: 6.17%
- NUCLEATED RED BLOOD CELLS [1]: 0.17 /100WBC
- PLATELET COUNT [1]: 1202.17 x10E3/uL
- ALANINE AMINOTRANSFERASE [1]: 50.67 u/L
- ALBUMIN [1]: 4.13 G/DL
- ALKALINE PHOSPHATASE [1]: 356.33 u/L
- ASPARTATE AMINOTRANSFERASE [1]: 78.17 u/L
- BLOOD UREA NITROGEN [1]: 14.17 mg/dL
- CARBON DIOXIDE [1]: 31.33 mmol/L
- CHOLESTEROL [1]: 76.5 mg/dL
- CREATINE PHOSPHOKINASE [1]: 248.33 u/L
- CREATININE [1]: 0.2 mg/dL
- GLUCOSE [1]: 144 mg/dL
- LACTATE DEHYDROGENASE [1]: 107 u/L
- LIPASE [1]: 9.83 u/L
- POTASSIUM [1]: 6.75 MEQ/L
- SODIUM [1]: 142 MEQ/L
- TOTAL BILIRUBIN [1]: 0.18 mg/dL
- TOTAL PROTEIN [1]: 5.98 G/DL
- URIC ACID [1]: 1.42 mg/dL
- ABSOLUTE BASOPHIL [2]: 0 CELLS/uL
- ABSOLUTE EOSINOPHIL [2]: 0 CELLS/uL
- ABSOLUTE LYMPHOCYTE [2]: 8681.17 CELLS/uL
- ABSOLUTE MONOCYTE [2]: 79.83 CELLS/uL
- ABSOLUTE SEGMENTED NEUTROPHIL [2]: 689 CELLS/uL
- BASOPHIL [2]: 0%
- EOSINOPHIL [2]: 0%
- ERYTHROCYTE COUNT [2]: 5.49 x10E6/uL
- HEMATOCRIT [2]: 33.55%
- HEMOGLOBIN [2]: 13.1 G/DL
- LEUKOCYTE COUNT [2]: 9.45 x10E3/uL
- LYMPHOCYTE [2]: 92.33%
- MEAN CORPUSCULAR HEMOGLOBIN [2]: 23.92 pg
- MEAN CORPUSCULAR HEMOGLOBIN CONCENTRATION [2]: 39.07 G/DL
- MONOCYTE [2]: 0.67%
- NEUTROPHIL [2]: 7%
- NUCLEATED RED BLOOD CELLS [2]: 0.17 /100WBC
- PLATELET COUNT [2]: 1001.17 x10E3/uL
- ALANINE AMINOTRANSFERASE [2]: 49.33 u/L
- ALBUMIN [2]: 4.07 G/DL
- ALKALINE PHOSPHATASE [2]: 300.33 u/L
- ASPARTATE AMINOTRANSFERASE [2]: 83.5 u/L
- BLOOD UREA NITROGEN [2]: 16 mg/dL
- CARBON DIOXIDE [2]: 29.67 mmol/L
- CHOLESTEROL [2]: 74.33 mg/dL
- CREATINE PHOSPHOKINASE [2]: 489.67 u/L
- CREATININE [2]: 0.35 mg/dL
- GLUCOSE [2]: 151 mg/dL
- LACTATE DEHYDROGENASE [2]: 133.67 u/L
- LIPASE [2]: 11.17 u/L
- POTASSIUM [2]: 5.5 MEQ/L
- SODIUM [2]: 145.7 MEQ/L
- TOTAL BILIRUBIN [2]: 0.2 mg/dL
- TOTAL PROTEIN [2]: 6.05 G/DL
- URIC ACID [2]: 0.68 mg/dL
- ABSOLUTE BASOPHIL [3]: 0 CELLS/uL
- ABSOLUTE EOSINOPHIL [3]: 0 CELLS/uL
- ABSOLUTE LYMPHOCYTE [3]: 14421.67 CELLS/uL
- ABSOLUTE MONOCYTE [3]: 118.67 CELLS/uL
- ABSOLUTE SEGMENTED NEUTROPHIL [3]: 559.67 CELLS/uL
- BASOPHIL [3]: 0%
- EOSINOPHIL [3]: 0%
- ERYTHROCYTE COUNT [3]: 5.8 x10E6/uL
- HEMATOCRIT [3]: 35.43%
- HEMOGLOBIN [3]: 13.97 G/DL
- LEUKOCYTE COUNT [3]: 15.1 x10E3/uL
- LYMPHOCYTE [3]: 95%
- MEAN CORPUSCULAR HEMOGLOBIN [3]: 24.1 pg
- MEAN CORPUSCULAR HEMOGLOBIN CONCENTRATION [3]: 39.4 G/DL
- MONOCYTE [3]: 0.67%
- NEUTROPHIL [3]: 4.33%
- NUCLEATED RED BLOOD CELLS [3]: 0 /100WBC
- PLATELET COUNT [3]: 1133.33 x10E3/uL
- ALANINE AMINOTRANSFERASE [3]: 50 u/L
- ALBUMIN [3]: 4.3 G/DL
- ALKALINE PHOSPHATASE [3]: 334 u/L
- ASPARTATE AMINOTRANSFERASE [3]: 88.67 u/L
- BLOOD UREA NITROGEN [3]: 17.33 mg/dL
- CARBON DIOXIDE [3]: 25.67 mmol/L
- CHOLESTEROL [3]: 70 mg/dL
- CREATINE PHOSPHOKINASE [3]: 328.33 u/L
- CREATININE [3]: 0.34 mg/dL
- GLUCOSE [3]: 183 mg/dL
- LACTATE DEHYDROGENASE [3]: 177.67 u/L
- LIPASE [3]: 10.33 u/L
- POTASSIUM [3]: 5.7 MEQ/L
- SODIUM [3]: 144.1 MEQ/L
- TOTAL BILIRUBIN [3]: 0.13 mg/dL
- TOTAL PROTEIN [3]: 6.17 G/DL
- URIC ACID [3]: 2.2 mg/dL
